Assay results published in the supplement of paper PMC5412046.
Counter-ions that a name gives are not always drawn.

Experiments:
SB.mhdgc-1 = test: AC50 for growth inhibition (viability) (log10 M); higher = less potent; settings: SB.mhdgc-1 (hereditary c.1380delA CDH1 gastric cancer)
How it was run: (§1)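 Hereditary or sporadic patient-derived gastric cancer cells (500 cells in 5 μL medium per 1536 well) received 23 nL compound in DMSO by pintool. Dosing was 11 threefold dilutions starting at a final 46 μM. After 48 h, CellTiter-Glo was added for 30 min at room temperature and luminescence read on a ViewLux. Log half-maximal activity concentration came from a four-parameter fit of DMSO-normalised viability, keeping only high-quality curve classes.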

SB.msgc-1 = test: as above; settings: SB.msgc-1 (sporadic gastric cancer)
How it was run: as §1

SMILES | AC50 for growth inhibition (log10 M) (SB.mhdgc-1) | AC50 for growth inhibition (log10 M) (SB.msgc-1)
C[C@@H]1CC[C@@]2(CC[C@]3(C)\C(=C/C[C@@H]4[C@@]5(C)CC[C@H](O)C(C)(C)[C@@H]5CC[C@@]34C)[C@@H]2[C@H]1C)C(O)=O [Ursolic acid] | -4.67 | -4.47
CC(C)(C)NC(=O)[C@H]1CC[C@H]2[C@@H]3CC[C@H]4NC(=O)\C=C/[C@]4(C)[C@H]3CC[C@]12C [Finasteride] | -6.23 | -5.78
O=C(O)c1ccc2cc(-c3ccc(O)c(C45CC6CC(CC(C6)C4)C5)c3)ccc2c1 [AHPN] | -6.48 | -4.83
N#C/C(=C(/N)Sc1ccc(N)cc1)c1ccccc1C(F)(F)F [SL-327] | -5.28 | -5.13
CC1(C)CC(=O)c2c(C(F)(F)F)nn(-c3ccc(C(N)=O)c(NC4CCC(OC(=O)CN)CC4)c3)c2C1 (stereo not given) [SNX-5422] | -6.58 | -7.13
Nc1ncnc2c1c(-c1cnc3[nH]ccc3c1)nn2C1CCCC1 [PP-121] | -5.78 | -5.38
CN(C)c1ccc2nc3ccc(N(C)C)cc3[s+]c2c1 [Methylene blue] | -5.83 | -5.33
COc1ccc2c(c[n+](C)c3c4cc5c(cc4ccc23)OCO5)c1OC [Chelerythrine chloride] | -5.08 | -5.03
S=C(NCc1ccc2c(c1)OCO2)N1CCN(c2ncnc3c2oc2ccccc23)CC1 [Amuvatinib] | -4.92 | -5.57
CCCCN(CCCC)CCC(O)c1cc2c(Cl)cc(Cl)cc2c2cc(C(F)(F)F)ccc12 (stereo not given) [Halofantrine] | -4.68 | -4.73
Cl.Cl.Cl.O[C@@H](COc1cccc2ncccc12)CN1CCN([C@@H]2c3ccccc3[C@@H]3[C@H](c4ccccc42)C3(F)F)CC1 [Zosuquidar trihydrochloride] | -4.93 | -5.28
COCCCC/C(=N\OCCN)c1ccc(C(F)(F)F)cc1 [Fluvoxamine maleate] | -4.63 | -4.88
CN[C@@H](C)C(=O)N[C@H]1CN(C(=O)CC(C)C)CC[C@H]2CC[C@@H](C(=O)NC(c3ccccc3)c3ccccc3)N2C1=O [AT-406] | -5.63 | -4.98
C[C@H](NC(=O)c1sccc1OCc1ccc(Cl)cc1)c1ccccc1 | -4.98 | -4.73
COC1=CC=C(C=C1O)C/2=C/C(=O)C3=C(O2)C=C(O[C@@H]4O[C@H](CO[C@@H]5O[C@@H](C)[C@H](O)[C@@H](O)[C@H]5O)[C@@H](O)[C@H](O)[C@H]4O)C=C3O [Diosmin] | -5.03 | -5.58
COc1cc2nc(-c3ccc(N4CCN(C)CC4)cc3)nc(NCCN3CCOCC3)c2cc1OC | -5.28 | -6.78
O=C/1NC(=O)C(=C1C2=CN=C3C=CC=C[N]23)/C4=C[N]5CCN(CC6=C5C4=CC=C6)C(=O)N7CCOCC7 [GSK3 Inhibitor] | -5.93 | -4.63
CC1=C(/C=C/C(C)=C/C=C/C(C)=C/C(=O)Nc2ccc(O)cc2)C(C)(C)CCC1 [Fenretinide] | -4.67 | -4.52
FC(F)(F)c1ccc(/C=C/c2nc(COc3ccc(CCCCn4ccnn4)cc3)co2)cc1 [Mubritinib] | -6.78 | -7.83
CC(=O)O/N=C1/C(=C2\C(=O)Nc3cc(Br)ccc32)Nc2ccccc21 [6-Bromoindirubin-3'-acetoxime] | -5.13 | -4.93
